Counter-ions that a name gives are not always drawn.

The first series can be described thus: RP, Agilent ZORBAX Eclipse XDB-C18, 100 × 2.1 mm, 1.8 µm, 50 °C, 0.4 mL/min, estimated dead time 0.55 min; A: water + 0.1% formic acid, pH 3; B: methanol + 0.1% formic acid, pH 3; gradient (min/%B) 0/2 10/100 14.5/100 14.51/2 16.5/2. Conditions: stereoisomer not certain.
In the case of `Cc1cc2nc3c(=O)[nH]c(=O)nc-3n(CC(O)C(O)C(O)CO)c2cc1C` (centres undefined) [Riboflavin], the LC retention time was 4.17 min.
The same measure, in the same setting: with `NCCc1c[nH]c2ccccc12` [Tryptamine] the figure was 2.51 min; with `Nc1ccc(C(=O)O)cc1` [4-Aminobenzoic acid], 2.08 min.
On the same count and under the same terms, for `Cn1c(=O)c2[nH]cnc2n(C)c1=O` [Theophylline] the value was 3.05 min.
`O=Cc1cccc(O)c1` [3-Hydroxybenzaldehyde]: the LC retention time was 3.72 min.
On the same count and under the same terms, for `O=C(O)Cc1cccc(O)c1` [3-hydroxyphenylacetic acid] the value was 3.55 min.
On the same count and under the same terms, for `COc1cc(C(O)C(=O)O)ccc1O` (centres undefined) [Vanillylmandelic acid] the value was 1.65 min.

A further series in a line: RP, Waters ACQUITY UPLC BEH C18, 100 × 2.1 mm, 1.7 µm, 65 °C, 0.4 mL/min, estimated dead time 0.55 min; A: water + 0.1% formic acid, pH 3; B: 80% acetonitrile + 20% acetone + 0.1% formic acid, pH 3; gradient (min/%B) 0/0 5/100 5.5/0 6/0. Conditions: stereoisomer not certain.
Consider `Oc1ccccc1O` [Catechol], for which the LC retention time is 1.75 min.
`Cc1cc2nc3c(=O)[nH]c(=O)nc-3n(CC(O)C(O)C(O)CO)c2cc1C` (centres undefined) [Riboflavin]: the LC retention time is 1.73 min.
Same read-out and setting: with `COc1cc(CC(CO)C(CO)Cc2ccc(O)c(OC)c2)ccc1O` (single isomer, unassigned; (-)) [(-)-Secoisolariciresinol] the figure was 2.4 min; with `O=C(O)C1OC(Oc2cc(O)c3c(=O)c(-c4ccc(O)cc4)coc3c2)C(O)C(O)C1O` (centres undefined) [Genistein 7-O-glucuronide], 2.1 min.
Still for that read-out and setting: for `NCCc1c[nH]c2ccccc12` [Tryptamine] the value was 1.51 min; for `Nc1ccc(C(=O)O)cc1` [4-Aminobenzoic acid], 1.53 min.
On the same count and under the same terms, for `Cn1c(=O)c2[nH]cnc2n(C)c1=O` [Theophylline] the value was 1.5 min.
For `O=C1OCC(Cc2cccc(O)c2)C1Cc1cccc(O)c1` (centres undefined) [Enterolactone], the LC retention time is 2.88 min.
The same measure, in the same setting: with `COc1cc(CC(=O)O)ccc1OS(=O)(=O)O` [Homovanillic acid sulfate] the figure was 1.45 min; with `O=C(O)CNC(=O)c1cccc(O)c1` [3-Hydroxyhippuric acid], 1.58 min; with `COc1cc(C(O)C(=O)O)ccc1O` (centres undefined) [Vanillylmandelic acid], 1.42 min.

Another series can be described thus: RP, Waters ACQUITY UPLC BEH Shield RP18, 150 × 2.1 mm, 1.7 µm, 40 °C, 0.4 mL/min, estimated dead time 0.83 min; A: water + 0.1% formic acid, pH 3; B: acetonitrile + 0.1% formic acid, pH 3; gradient (min/%B) 0/0 30/50 31/100 37/100 37.1/0. Conditions: stereoisomer not certain.
`C=C1C(=O)OC2C3C(COC(=O)C(=O)O)=CC(=O)C3=C(C)CC(O)C12` (centres undefined) [lactucin-15-oxalate]: the LC retention time was 10.4 min.
On the same count and under the same terms, with `CC1=C2C(=O)C=C(CO)C2C2OC(=O)C(C)C2CC1` (centres undefined) [Dihydro-8-deoxylactucin] the figure was 14.5 min; with `Oc1ccccc1O` [Catechol], 4.35 min; with `CC1=C2C(=O)C=C(COC(=O)C(=O)O)C2C2OC(=O)C(C)C2C(OC(=O)Cc2ccc(O)cc2)C1` (centres undefined) [Dihydrolactucopicrin-15-oxalate], 17.3 min.
Turning to `CC1=C2C(=O)C=C(CO)C2C2OC(=O)C(C)C2C(O)C1` (centres undefined) [Dihydrolactucin], the LC retention time is 10.5 min.
On the same count and under the same terms, with `CC1=C2C(=O)C=C(COC(=O)C(=O)O)C2C2OC(=O)C(C)C2CC1` (centres undefined) [Dihydro-8-deoxylactucin-15-oxalate] the figure was 14.9 min.
The same measure, in the same setting: with `C=C1C(=O)OC2C3C(COC(=O)C(=O)O)=CC(=O)C3=C(C)CC(OC(=O)Cc3ccc(O)cc3)C12` (centres undefined) [lactucopicrin-15-oxalate] the figure was 17.2 min.
Same read-out and setting: with `O=c1c(O)c(-c2ccccc2)oc2cc(O)cc(O)c12` [galangin] the figure was 29.4 min.
For the molecule `C=C1C(=O)OC2C1CCC(C)=C1C(=O)C=C(CO)C12` (centres undefined) [8-deoxylactucin], the LC retention time is 15.5 min.
Same read-out and setting: for `C=C1C(=O)OC2C1CCC(C)=C1C(=O)C=C(COC(=O)C(=O)O)C12` (centres undefined) [8-deoxylactucin-15-oxalate] the value was 14.5 min.
Take `CC1=C2C(=O)C=C(COC(=O)C(=O)O)C2C2OC(=O)C(C)C2C(O)C1` (centres undefined) [Dihydrolactucin-15-oxalate]: the LC retention time was 9.7 min.
For the molecule `C=C1C(=O)OC2C3C(CO)=CC(=O)C3=C(C)CC(O)C12` (centres undefined) [Lactucin], the LC retention time is 11.2 min.
On the same count and under the same terms, for `COc1cc(CCC(=O)O)ccc1O` [Dihydroferulic acid] the value was 8.81 min.
On the same count and under the same terms, for `O=C1c2c(O)cc(O)cc2OC(c2ccc(O)cc2)C1O` (centres undefined) [Dihydrokaempferol] the value was 15.3 min.
For the molecule `CCCOC(=O)c1cc(O)c(O)c(O)c1` [propyl gallate], the LC retention time was 12.8 min.
The same measure, in the same setting: with `C=C1C(=O)OC2C3C(CO)=CC(=O)C3=C(C)CC(OC(=O)Cc3ccc(O)cc3)C12` (centres undefined) [Lactucopicrin] the figure was 18.4 min.

The next series is described as follows: RP, Agilent ZORBAX RRHD Eclipse Plus C18, 50 × 2.1 mm, 1.8 µm, 30 °C, 0.4 mL/min, estimated dead time 0.28 min; A: water + 0.1% formic acid, pH 3; B: acetonitrile + 0.1% formic acid, pH 3; gradient (min/%B) 0/1 5/10 8/25 9.1/99 10/99 12/1. Conditions: stereoisomer not certain.
For `Oc1ccccc1O` [Catechol], the LC retention time is 3.15 min.
In the case of `O=C(O)C=Cc1ccc(O)c(OS(=O)(=O)O)c1` [Caffeic acid-3-O-sulfate], the LC retention time was 4.86 min.
On the same count and under the same terms, for `O=C(O)C=Cc1ccc(O)c(OC2OC(C(=O)O)C(O)C(O)C2O)c1` (centres undefined) [Caffeic acid-3-glucuronide] the value was 5.23 min; for `O=C(O)C=Cc1ccc(OS(=O)(=O)O)c(O)c1` [caffeic acid-4-O-sulfate], 5.28 min.
For the molecule `COc1ccc(CCC(=O)O)cc1OS(=O)(=O)O` [Dihydro isoferulic acid-3-O-sulfate], the LC retention time was 6.39 min.
On the same count and under the same terms, for `O=C(O)C1OC(Oc2cc(O)c3c(=O)c(O)c(-c4ccc(O)c(O)c4)oc3c2)C(O)C(O)C1O` (centres undefined) [Quercetin-7-O-glucuronide] the value was 7.84 min; for `Cc1ccc(O)c(OS(=O)(=O)O)c1` [4-Methylcatechol-2-O-sulfate], 5.96 min; for `COc1c(O)cccc1OS(=O)(=O)O` [2-Methyl-pyrogallol-O-sulfate], 2.89 min.
Consider `O=C(O)C=Cc1ccc(OC2OC(C(=O)O)C(O)C(O)C2O)cc1` (centres undefined) [p-Coumaric acid-4-O-glucuronide], for which the LC retention time is 3.8 min.
On the same count and under the same terms, with `CC(Oc1ccc(O)cc1)C(=O)O` (single isomer, unassigned; (+)) [(+)-2-(4-Hydroxyphenoxy)propionic acid] the figure was 6.31 min; with `COc1ccc(C(=O)O)c(O)c1` [2-hydroxy-4-methoxybenzoic acid], 8.98 min.
Turning to `O=S(=O)(O)Oc1cccc(O)c1O` [Pyrogallol-1-O-sulfate], the LC retention time is 1.56 min.
Same read-out and setting: for `COc1cccc(OS(=O)(=O)O)c1O` [1-Methyl-pyrogallol-O-sulfate] the value was 4 min.
Same read-out and setting: for `COc1cc(CC(=O)O)ccc1OS(=O)(=O)O` [Homovanillic acid sulfate] the value was 4.48 min; for `O=C(O)CNC(=O)c1cccc(O)c1` [3-Hydroxyhippuric acid], 3.58 min.
Consider `O=Cc1cccc(O)c1` [3-Hydroxybenzaldehyde], for which the LC retention time was 5.91 min.
Still for that read-out and setting: with `Cc1ccc(OS(=O)(=O)O)c(O)c1` [4-Methylcatechol-1-O-sulfate] the figure was 5.96 min.
For the molecule `COc1cc(CCC(=O)O)ccc1O` [Dihydroferulic acid], the LC retention time was 7.16 min.
Same read-out and setting: for `COc1cc(CCC(=O)O)ccc1OC1OC(C(=O)O)C(O)C(O)C1O` (centres undefined) [Dihydroferulic acid-4-O-glucuronide] the value was 5.64 min.
The same measure, in the same setting: for `O=C(O)Cc1cccc(O)c1` [3-hydroxyphenylacetic acid] the value was 5.69 min.
Still for that read-out and setting: for `O=C(O)Cc1ccccc1` [Phenylacetic acid] the value was 7.64 min.
On to `O=C(O)C=Cc1ccc(OS(=O)(=O)O)cc1` [p-Coumaric acid 4-O-sulfate], for which the LC retention time was 5.25 min.
The same measure, in the same setting: for `COc1ccc(C(=O)O)cc1O` [Isovanillic acid] the value was 5.2 min; for `Oc1cccc(O)c1` [Resorcinol], 2.66 min; for `O=C1CCC(Cc2ccc(OS(=O)(=O)O)c(O)c2)O1` (centres undefined), 6.09 min.
For the molecule `COc1ccc(C2Oc3cc(O)cc(O)c3CC2O)cc1O` (centres undefined) [4'-O-methylepicatechin], the LC retention time was 7.85 min.
Still for that read-out and setting: with `COc1ccc(CCC(=O)O)cc1O` [Dihydroisoferulic acid] the figure was 7.68 min.

A short description of the next series: RP, Agilent ZORBAX RRHD Eclipse Plus C18, 50 × 2.1 mm, 1.8 µm, 30 °C, 0.4 mL/min, estimated dead time 0.28 min; A: water + 0.1% formic acid, pH 3; B: acetonitrile + 0.1% formic acid, pH 3; gradient (min/%B) 0/1 5/10 8/25 9.1/99 10/99 12/99. Conditions: stereoisomer not certain.
For the molecule `Oc1ccccc1O` [Catechol], the LC retention time is 3.97 min.
On to `O=C(O)C=Cc1ccc(O)c(OS(=O)(=O)O)c1` [Caffeic acid-3-O-sulfate], for which the LC retention time was 3.99 min.
In the case of `O=C(O)C=Cc1ccc(O)c(OC2OC(C(=O)O)C(O)C(O)C2O)c1` (centres undefined) [Caffeic acid-3-glucuronide], the LC retention time is 4.14 min.
Still for that read-out and setting: for `O=C(O)C=Cc1ccc(OS(=O)(=O)O)c(O)c1` [caffeic acid-4-O-sulfate] the value was 5.5 min; for `COc1ccc(CCC(=O)O)cc1OS(=O)(=O)O` [Dihydro isoferulic acid-3-O-sulfate], 5.06 min; for `O=C(O)C1OC(Oc2cc(O)c3c(=O)c(O)c(-c4ccc(O)c(O)c4)oc3c2)C(O)C(O)C1O` (centres undefined) [Quercetin-7-O-glucuronide], 8.38 min.
As for `Cc1ccc(O)c(OS(=O)(=O)O)c1` [4-Methylcatechol-2-O-sulfate], the LC retention time was 3.83 min.
On the same count and under the same terms, with `COc1c(O)cccc1OS(=O)(=O)O` [2-Methyl-pyrogallol-O-sulfate] the figure was 1.12 min; with `O=C(O)C=Cc1ccc(OC2OC(C(=O)O)C(O)C(O)C2O)cc1` (centres undefined) [p-Coumaric acid-4-O-glucuronide], 1.85 min.
In the case of `CC(Oc1ccc(O)cc1)C(=O)O` (single isomer, unassigned; (+)) [(+)-2-(4-Hydroxyphenoxy)propionic acid], the LC retention time was 3.73 min.
On the same count and under the same terms, with `O=S(=O)(O)Oc1cccc(O)c1O` [Pyrogallol-1-O-sulfate] the figure was 0.774 min; with `Oc1cc(O)c2c(c1)OC(c1ccc(O)c(O)c1)C(O)C2` (single isomer, unassigned; (+)) [(+)-Catechin], 4.65 min; with `COc1cccc(OS(=O)(=O)O)c1O` [1-Methyl-pyrogallol-O-sulfate], 1.96 min.
As for `COc1cc(CC(=O)O)ccc1OS(=O)(=O)O` [Homovanillic acid sulfate], the LC retention time is 2.12 min.
Same read-out and setting: with `O=C(O)CNC(=O)c1cccc(O)c1` [3-Hydroxyhippuric acid] the figure was 1.88 min; with `Cc1ccc(OS(=O)(=O)O)c(O)c1` [4-Methylcatechol-1-O-sulfate], 3.83 min.
For the molecule `COc1cc(CCC(=O)O)ccc1O` [Dihydroferulic acid], the LC retention time is 4.07 min.
Same read-out and setting: with `COc1cc(CCC(=O)O)ccc1OC1OC(C(=O)O)C(O)C(O)C1O` (centres undefined) [Dihydroferulic acid-4-O-glucuronide] the figure was 5.15 min; with `O=C(O)Cc1cccc(O)c1` [3-hydroxyphenylacetic acid], 4.67 min.
The same measure, in the same setting: with `O=C(O)Cc1ccccc1` [Phenylacetic acid] the figure was 4.65 min; with `O=C(O)C=Cc1ccc(OS(=O)(=O)O)cc1` [p-Coumaric acid 4-O-sulfate], 3.78 min.
For the molecule `COc1ccc(C(=O)O)cc1O` [Isovanillic acid], the LC retention time is 1.99 min.
Take `Oc1cccc(O)c1` [Resorcinol]: the LC retention time is 1.44 min.
Same read-out and setting: for `O=C1CCC(Cc2ccc(OS(=O)(=O)O)c(O)c2)O1` (centres undefined) the value was 5.42 min.
The same measure, in the same setting: with `COc1ccc(CCC(=O)O)cc1O` [Dihydroisoferulic acid] the figure was 5.06 min.

The nature of another series: RP, Agilent InfinityLab Poroshell 120 EC-C18, 100 × 3 mm, 2.7 µm, 25 °C, 0.4 mL/min, estimated dead time 1.1 min; A: water + 0.1% formic acid, pH 3; B: acetonitrile + 0.1% formic acid, pH 3; gradient (min/%B) 0/5 10/25 20/40 24/90 25/90 26/5 30/5. Conditions: stereoisomer not certain.
As to `COc1cc(CC(CO)C(CO)Cc2ccc(O)c(OC)c2)ccc1O` (single isomer, unassigned; (-)) [(-)-Secoisolariciresinol], the LC retention time was 11.5 min.
In the case of `O=C(O)C1OC(Oc2cc(O)c3c(=O)c(-c4ccc(O)cc4)coc3c2)C(O)C(O)C1O` (centres undefined) [Genistein 7-O-glucuronide], the LC retention time is 9.6 min.
Still for that read-out and setting: with `O=C1OCC(Cc2cccc(O)c2)C1Cc1cccc(O)c1` (centres undefined) [Enterolactone] the figure was 17.4 min.

The record behind these values is the RepoRT retention time repository (doi:10.1016/j.foodchem.2021.129757).
